Data reported in patent US5763444A, “Antidepressant 1-arylalkyl-4-(alkoxy pyridinyl)-and 4-(alkoxypyrimidinyl) piperazine derivatives” (Bristol-Myers Squibb Company, priority 1996, dated 1998).
Structures can show the parent of a compound that is named as a salt.

Biological target: T1, synaptosomal serotonin uptake (Rattus norvegicus, UniProt P31652)
T1 construct: from tissue
Experiment: inhibition of synaptosomal reuptake of tritiated serotonin (5-HT inhibition assay)
Assay type: biochemical
Design: key: *: Compounds designated with an asterisk are most preferred, based on abilities to inhibit synoptosomal serotonin uptake
Conditions: among compounds with IC50 less than 100 nM
Procedure: Determination of endogenous monoaminergic re-uptake inhibition values both for serotonin and norepinephrine was accomplished using test methods described by P. Skolnick, et al., Br. J. Pharmacology, (1985), 86, pp. 637-644; with only minor modifications. In vitro IC50 (nM) test values were determined for representative compounds of Formula I based on their inhibition of synaptosomal re-uptake of tritiated serotonin.
Compounds of the invention were tested for their ability to inhibit serotonin reuptake. Determination of endogenous monoaminergic reuptake inhibition values for serotonin was accomplished using test methods described by P. Skolnick et al., Br. J. Pharmacology (1985), 86, pp. 637-644; with only minor modifications.
In vitro IC50 (nM) test values were determined for representative compounds of Formula I based on their inhibition of synaptosomal reuptake of tritiated serotnin.

T1 sequence (P31652 whole entry): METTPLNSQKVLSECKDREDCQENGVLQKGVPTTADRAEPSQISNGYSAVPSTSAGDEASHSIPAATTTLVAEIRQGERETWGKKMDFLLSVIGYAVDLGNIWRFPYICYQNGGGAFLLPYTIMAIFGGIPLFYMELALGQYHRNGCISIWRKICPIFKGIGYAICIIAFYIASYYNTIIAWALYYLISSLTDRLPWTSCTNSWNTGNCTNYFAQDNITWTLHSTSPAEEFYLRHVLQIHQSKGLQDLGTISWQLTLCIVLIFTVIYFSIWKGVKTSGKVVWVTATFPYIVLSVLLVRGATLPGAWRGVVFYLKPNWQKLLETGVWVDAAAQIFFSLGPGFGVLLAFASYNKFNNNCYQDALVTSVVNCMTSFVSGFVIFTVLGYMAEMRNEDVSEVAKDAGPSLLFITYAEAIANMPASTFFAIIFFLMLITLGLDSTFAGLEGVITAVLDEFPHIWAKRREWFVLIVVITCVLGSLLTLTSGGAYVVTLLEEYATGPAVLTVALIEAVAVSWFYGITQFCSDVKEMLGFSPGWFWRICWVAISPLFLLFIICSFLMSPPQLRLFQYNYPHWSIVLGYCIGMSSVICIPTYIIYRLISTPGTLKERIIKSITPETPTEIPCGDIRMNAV

SMILES	asterisk designation: most preferred, based on ability to inhibit synaptosomal serotonin uptake
COc1cccnc1N1CCN(CCC2CSc3ccccc32)C(C)C1.Cl (stereo not shown) [Example 6, 1-[2-(2,3-dihydro-benzo[b]thien-3-yl)ethyl]-4-(3-methoxy-2-pyridinyl)-2-methylpiperazine hydrochloride]	*
COc1cccnc1N1CCN(CCCC2CSc3ccccc32)C(C)C1 (stereo not shown) [Example 7, hydrochloride]	*
COc1cccnc1N1CCN(CCC2CSc3ccccc32)CC1.Cl (stereo not shown) [Example 17, 1-[2-(2,3-dihydro-benzo[b]thien-3-yl)ethyl]-4-(3-methoxy-2-pyridinyl)piperazine hydrochloride]	*
COc1cccnc1N1CCN(CCCc2coc3ccc(F)cc23)CC1.Cl [Example 20, 1-[3-(5-fluorobenzo[b]furan-3-yl)propyl]-4-(3-methoxy-2-pyridinyl)piperazine hydrochloride]	*
COc1cccnc1N1CCN(CCCc2coc3ccc(Cl)cc23)CC1.Cl [Example 25, 1-[3-(5-chlorobenzo[b]furan-3-yl)propyl]-4-(3-methoxy-2-pyridinyl)piperazine hydrochloride]	*
COc1cncnc1N1CCN(CCCc2coc3ccc(Cl)cc23)C(C)C1.Cl (stereo not shown) [Example 27, 1-[3-(5-chlorobenzo[b]furan-3-yl)propyl]-4-(5-methoxy-4-pyrimidinyl)-2-methylpiperazine hydrochloride]	*
COc1cncnc1N1CCN(CCCc2coc3ccccc23)CC1C.Cl (stereo not shown) [Example 28, 1-[3-(benzo[b]furan-3-yl)propyl]-4-(5-methoxy-4-pyrimidinyl)-3-methylpiperazine hydrochloride]	*
COc1cccnc1N1CCN(CCCc2coc3ccc(C)cc23)CC1.Cl [Example 29, 1-[3-(5-methylbenzo[b]furan-3-yl)propyl]-4-(3-methoxy-2-pyridinyl)piperazine hydrochloride]	*
COc1cncnc1N1CCN(CCCc2coc3ccc(C)cc23)C(C)C1.Cl (stereo not shown) [Example 30, 1-[3-(5-methylbenzo[b]furan-3-yl)propyl]-4-(5-methoxy-4-pyrimidinyl)-2-methylpiperazine hydrochloride]	*
COc1cccnc1N1CCN(CCCc2coc3ccccc23)CC1.Cl [Example 31, 1-[3-(benzo[b]furan-3-yl)propyl]-4-(3-methoxy-2-pyridinyl)piperazine hydrochloride]	*
COc1cncnc1N1CCN(CCCc2coc3ccccc23)C(C)C1 (stereo not shown) [Example 32, 1-[3-(benzo[b]furan-3-yl)propyl]-4-(5-methoxy-4-pyrimidinyl-2-methylpiperazine hydrochloride]	*
COc1cccnc1N1CCN(CCc2coc3ccccc23)CC1.Cl [Example 33, 1-[2-(benzo[b]furan-3-yl)ethyl]-4-(3-methoxy-2-pyridinyl)piperazine hydrochloride]	*
COc1cccnc1N1CCN(CCCc2csc3ccccc23)C(C)C1.Cl (stereo not shown) [Example 41, 1-[3-(benzo[b]thien-3-yl)propyl]-4-(3-methoxy-2-pyridinyl)-2-methylpiperazine hydrochloride]	*
COc1cncnc1N1CCN(CCCc2csc3ccccc23)C(C)C1.Cl (stereo not shown) [Example 50, 1-[3-(benzo[b]thien-3-yl)propyl]-4-(5-methoxy-4-pyrimidinyl)-2-methylpiperazine hydrochloride]	*
COc1cncnc1N1CCN(CCCc2csc3ccccc23)CC1C.Cl (stereo not shown) [Example 51, 1-[3-(benzo[b]thien-3-yl)propyl]-4-(5-methoxy-4-pyrimidinyl)-3-methylpiperazine hydrochloride]	*
COc1cncnc1N1CCN(CCCc2csc3ccc(F)cc23)CC1.Cl [Example 52, 1-[3-(5-fluorobenzo[b]thien-3-yl)propyl]-4-(5-methoxy-4-pyrimidinyl)piperazine hydrochloride]	*
COc1cncnc1N1CCN(CCCc2csc3ccc(F)cc23)CC1C.Cl (stereo not shown) [Example 55, 1-[3-(5-fluorobenzo[b]thien-3-yl)propyl]-4-(5-methoxy-4-pyrimidinyl)-3-methylpiperazine hydrochloride]	*
COc1cccnc1N1CCN(CCCc2csc3ccccc23)CC1.O=C(O)/C=C/C(=O)O [Example 56, 1-[3-(benzo[b]thien-3-yl)propyl]-4-(3-methoxy-2-pyridinyl)piperazine fumarate]	*
COc1cccnc1N1CCN(CCc2csc3ccccc23)CC1.Cl [Example 57, 1-[2-(benzo[b]thien-3-yl)ethyl]-4-(3-methoxy-2-pyridinyl)piperazine hydrochloride]	*
COc1cccnc1N1CCN(CCc2csc3ccccc23)C(C)C1.Cl (stereo not shown) [Example 58, 1-[2-(benzo[b]thien-3-yl)ethyl]-4-(3-methoxy-2-pyridinyl)-2-methylpiperazine hydrochloride]	*
COc1cncnc1N1CCN(CCCc2csc3ccccc23)CC1.Cl [Example 59, 1-[3-(benzo[b]thien-3-yl)propyl]-4-(5-methoxy-4-pyrimidinyl)piperazine hydrochloride]	*
COc1cc(Cl)cnc1N1CCN(CCCc2csc3ccccc23)C(C)C1.Cl (stereo not shown) [Example 60, 1-[3-(benzo[b]thien-3-yl)propyl]-4-(5-chloro-3-methoxy-2-pyridinyl)-2-methylpiperazine hydrochloride]	*
COc1cncnc1N1CCN(CCCc2csc3ccc(F)cc23)C(C)C1.Cl (stereo not shown) [Example 63, 1-[3-(5-fluorobenzo[b]thien-3-yl)propyl]-4-(5-methoxy-4-pyrimidinyl)-2-methylpiperazine hydrochloride]	*
COc1cncnc1N1CCN(CCc2csc3ccccc23)CC1C.Cl (stereo not shown) [Example 64, 1-[2-(benzo[b]thien-3-yl)ethyl]-4-(5-methoxy-4-pyrimidinyl)-3-methylpiperazine hydrochloride]	*
COc1cncnc1N1CCN(CCCc2csc3ccc(C#N)cc23)CC1.Cl [Example 65, 1-[3-(5-cyanobenzo[b]thien-3-yl)propyl]-4-(5-methoxy-4-pyrimidinyl)piperazine hydrochloride]	*
